The record followed here is ChEMBL document CHEMBL1153778, “Contact-active microbicidal gold surfaces using immobilization of quaternary ammonium thiol derivatives” (2009).

Common to all, as to assay type: functional
Experiment [1] concerns Staphylococcus aureus. The experiment is described as follows: Antimicrobial activity against Staphylococcus aureus ATCC 6538 on gold coated surface assessed as log reduction of colony forming units after 4 hrs.
Experiment [2] deals with Staphylococcus aureus. As to the kind of experiment: Antimicrobial activity against Staphylococcus aureus ATCC 6538 on gold coated surface assessed as bactericidal efficiency after 4 hrs.
For experiment [3], the system named is Staphylococcus aureus. As to the kind of experiment: Antimicrobial activity against Staphylococcus aureus ATCC 6538 on gold coated surface assessed as log reduction of colony forming units after 24 hrs.

Turning to `CCCCCCCCCC[N+](C)(C)CCCNC(=O)CCCCCCCCCCS.[Cl-]`, the Activity stood at 0.39 in experiment [1], 67 in experiment [2] and 0 in experiment [3].

Regarding `C[N+](C)(C)CCCCCCCCCCCS.[Cl-]`, the values for the Activity in experiment [1], in experiment [2] and in experiment [3] were 0.14, 30 and 0, respectively.

Turning to `CCCCCCCCCC[N+](C)(C)CCCCCCCCCCCS.[Cl-]`, the Activity is given as 0.31 in experiment [1], 51 in experiment [2] and 0 in experiment [3].

Turning to `CCCCCCCCCCCCCC[N+](C)(C)CCCNC(=O)CCCCCCCCCCS.[Cl-]`, the Activity in experiment [1] was 0.14; in experiment [2], 30; in experiment [3] it was 0.

Take `C[N+](C)(CCCNC(=O)CCCCCCCCCCS)Cc1ccccc1.[Cl-]`: the Activity in experiment [1], in experiment [2] and in experiment [3] was 0 each time.

For the compound `CCCCCCCCCCCC[N+](C)(C)CCCCCCCCCCCS.[Cl-]`, the Activity in experiment [1] is given as 0.31; in experiment [2], 51; in experiment [3] it was 0.

With `CCCCCCCCCCCCCC[N+](C)(C)CCCCCCCCCCCS.[Cl-]`, the Activity in experiment [1], in experiment [2] and in experiment [3] was 0 each time.

Regarding `C[N+](C)(C)CCCNC(=O)CCCCCCCCCCS.[Cl-]`, the Activity in experiment [1] stood at 0.14; in experiment [2], 30; in experiment [3], 0.

On to `CCCCCCCCCCCC[N+](C)(C)CCCNC(=O)CCCCCCCCCCS.[Cl-]`, for which the Activity in experiment [1] was determined as 0.31; in experiment [2], 51; in experiment [3], 0.

Regarding `C[N+](C)(CCCCCCCCCCCS)Cc1ccccc1.[Cl-]`, the Activity in experiment [1] stood at 0.14; in experiment [2] it was 30; in experiment [3], 0.
